{
  "source": "patent US20060276478A1",
  "about": "“Pyrazolopyrimidines” (priority 2003, published 2006)",
  "note": "Counter-ions that a name gives are not always drawn.",
  "data": [
    {"assay": "logP determination by HPLC (EEC directive 79/831 Annex V. A8)", "assay_type": "physicochemical", "settings": "HPLC (gradient, acetonitrile/0.1% aqueous phosphoric acid), gradient method", "method": "(§1) logP values are determined in accordance with EEC directive 79/831 Annex V. A8 by HPLC (gradient method, acetonitrile/0.1% aqueous phosphoric acid). Preparation of Starting Materials", "values": [
      {"smiles": "CC(Nc1c(-c2c(F)cccc2Cl)c(Cl)nc2c(C(N)=O)cnn12)C(C)(C)C", "note": "(stereo not shown) [Example 1, 3-amido-5-chloro-6-(2-chloro-6-fluorophenyl)-7-(3,3-dimethylbut-2-ylamino)pyrazolo[1,5-a]pyrimidine]", "chromatographic logP": 3.62},
      {"smiles": "CC(Nc1c(-c2ccc(F)cc2Cl)c(Cl)nc2c(C#N)cnn12)C(C)(C)C", "note": "(stereo not shown) [Example 37]", "chromatographic logP": 4.78},
      {"smiles": "CC(Nc1c(-c2ccc(F)cc2Cl)c(Cl)nc2c(C(N)=NO)cnn12)C(C)(C)C", "note": "(stereo not shown) [Example 2, 3-hydroximinoamido-5-chloro-6-(2-chloro-4-fluorophenyl)-7-(3,3-dimethylbut-2-ylamino)pyrazolo[1,5-a]pyrimidine]", "chromatographic logP": 2.55},
      {"smiles": "N#Cc1cnn2c(O)c(-c3c(F)cccc3Cl)c(O)nc12", "note": "[Example 39]", "chromatographic logP": 0.19},
      {"smiles": "N#Cc1cnn2c(Cl)c(-c3ccc(F)cc3Cl)c(Cl)nc12", "note": "[Example 40, 3-cyano-5,7-dichloro-6-(2-chloro-4-fluorophenyl)pyrazolo[1,5-a]pyrimidine]", "chromatographic logP": 3.49},
      {"smiles": "CC(Nc1c(-c2c(F)cccc2Cl)c(Cl)nc2c(C#N)cnn12)C(C)(C)C", "note": "(stereo not shown) [Example 36, 3-cyano-5-chloro-6-(2-chloro-6-fluorophenyl)-7-(3,3-dimethylbut-2-ylamino)pyrazolo[1,5-a]pyrimidine]", "chromatographic logP": 4.59},
      {"smiles": "N#Cc1cnn2c(Cl)c(-c3c(F)cccc3Cl)c(Cl)nc12", "note": "[Example 41]", "chromatographic logP": 3.31},
      {"smiles": "CC(Nc1c(-c2ccc(F)cc2Cl)c(Cl)nc2c(C(=N)N)cnn12)C(C)(C)C", "note": "(single isomer, unassigned) [Example 3, 3-iminoamide-5-chloro-6-(2-chloro-4-fluorophenyl)-7-(3,3-dimethylbut-2-ylamino)pyrazolo[1,5-a]pyrimidine hydrochloride]", "chromatographic logP": 2.72}
    ]},
    {"assay": "logP determination by HPLC (EEC directive 79/831 Annex V. A8)", "assay_type": "physicochemical", "settings": "gradient method, acetonitrile/0.1% aqueous phosphoric acid", "method": "as §1", "values": [
      {"smiles": "CC(Nc1c(-c2ccc(F)cc2Cl)c(Cl)nc2c(C=NNc3ccc([N+](=O)[O-])cc3[N+](=O)[O-])cnn12)C(C)(C)C", "note": "(stereo not shown) [Example 5, 3-(2,4-dinitriophenylhydraziminomethyl)-5-chloro-6-(2-chloro-4-fluorophenyl)-7-(3,3-dimethylbut-2-ylamino)pyrazolo[1,5-a]pyrimidine]", "chromatographic logP": 6.28}
    ]},
    {"assay": "logP determination by HPLC (EEC directive 79/831 Annex V. A8)", "assay_type": "physicochemical", "settings": "gradient method, acetonitrile/0.1% aqueous phosphoric acid, hydrochloride", "method": "as §1", "values": [
      {"smiles": "CC(Nc1c(-c2ccc(F)cc2Cl)c(Cl)nc2c(C(=N)N)cnn12)C(C)(C)C", "note": "(single isomer, unassigned) [Example 4, hydrochloride]", "logP": 2.58}
    ]}
  ]
}
